This assay addresses T1, human PTH1 receptor (Homo sapiens, UniProt Q03431).
T1 sequence (Q03431 27-593): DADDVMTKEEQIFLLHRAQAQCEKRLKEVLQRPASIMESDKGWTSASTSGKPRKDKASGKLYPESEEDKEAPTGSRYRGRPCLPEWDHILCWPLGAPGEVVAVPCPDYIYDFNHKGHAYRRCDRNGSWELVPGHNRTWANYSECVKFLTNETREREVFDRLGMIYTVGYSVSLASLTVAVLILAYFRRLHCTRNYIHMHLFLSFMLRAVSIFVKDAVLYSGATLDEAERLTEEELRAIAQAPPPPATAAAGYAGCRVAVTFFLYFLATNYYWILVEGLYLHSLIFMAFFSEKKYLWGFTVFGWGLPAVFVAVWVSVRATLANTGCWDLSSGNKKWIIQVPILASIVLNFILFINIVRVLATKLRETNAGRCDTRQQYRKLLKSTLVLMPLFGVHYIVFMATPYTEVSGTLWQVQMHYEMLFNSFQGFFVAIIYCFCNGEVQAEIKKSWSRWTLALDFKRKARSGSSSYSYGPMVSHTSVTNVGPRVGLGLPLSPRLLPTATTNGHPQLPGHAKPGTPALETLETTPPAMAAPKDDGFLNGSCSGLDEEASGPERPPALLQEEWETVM
Put plainly: In vitro cAMP signal activity in HKRK-B7 cells (LLC-PK1 cells overexpressing the human PTH1 receptor). The settings on record: HKRK-B7 cells; compound at 1×10^−3 M; cAMP produced as percentage of that produced by hPTH(1-34) at 100 nM. The assay is classed as cell-based.
On to `Cc1cc(C(=O)N2CCC(C)(O)CC2)cc(C)c1/C=C/S(=O)(=O)N1CCC2(CC1)N=C(c1ccc3cc[nH]c3c1)NC2=O` [Compound 1208, 8-{(E)-2-[4-(4-hydroxy-4-methyl-piperidine-1-carbonyl)-2,6-dimethyl-phenyl]-ethenesulfonyl}-2-(1H-indol-6-yl)-1,3,8-triaza-spiro[4.5]dec-1-en-4-one], for which the “cAMP production activity (%)” value is listed as 65%.
For `[2H]C([2H])([2H])C([2H])(Oc1ccc(C2=NC3(CCN(S(=O)(=O)/C=C/c4c(C)cc(C(=O)N5CCC(O)(CF)CC5)cc4C)CC3)C(=O)N2)cc1C(F)(F)F)C([2H])([2H])[2H]` [Compound 1262, 8-{(E)-2-[4-(4-fluoromethyl-4-hydroxy-piperidine-1-carbonyl)-2,6-dimethyl-phenyl]-ethenesulfonyl}-2-(4-[1,2,2,2,2,2,2-^2H7]isopropoxy-3-trifluoromethyl-phenyl)-1,3,8-triaza-spiro[4.5]dec-1-en-4-one] the value was 90%.
Regarding `Cc1cc(N(CCOCCO)C(N)=O)cc(C)c1/C=C/S(=O)(=O)N1CCC2(CC1)N=C(C1CCC(CCC(F)(F)F)CC1)NC2=O` (stereo not drawn) [Compound 724, 1-[3,5-Dimethyl-4-((E)-2-{4-oxo-2-[4-(3,3,3-trifluoro-propyl)-cyclohexyl]-1,3,8-triaza-spiro[4.5]dec-1-ene-8-sulfonyl}-vinyl)-phenyl]-1-[2-(2-hydroxy-ethoxy)-ethyl]-urea], the “cAMP production activity (%)” value came out at 74%.
On to `Cc1cc(C(N)=O)cc(C)c1/C=C/S(=O)(=O)N1CCC2(CC1)N=C(c1cccc(OC(F)(F)F)c1)NC2=O` [Compound 962, 3,5-dimethyl-4-{(E)-2-[4-oxo-2-(3-trifluoromethoxy-phenyl)-1,3,8-triaza-spiro[4.5]dec-1-ene-8-sulfonyl]-vinyl}-benzamide], for which the “cAMP production activity (%)” value is given as 86%.
For `Cc1cc2ccc1CCS(=O)(=O)N1CCC3(CC1)N=C(NC3=O)c1cc(cc(C(F)(F)F)c1)OCCCCCOCCN(CCO)C2=O` [Compound 1429] the value was 8.9%.
With `CC(=O)Nc1ccc(CCS(=O)(=O)N2CCC3(CC2)N=C([C@H]2CC[C@H](/C=C/C(F)F)CC2)NC3=O)c(C)c1` [Compound 916, N-[4-(2-{2-[4-((E)-3,3-difluoro-propenyl)-cyclohexyl]-4-oxo-1,3,8-triaza-spiro[4.5]dec-1-ene-8-sulfonyl}-ethyl)-3-methyl-phenyl]-acetamide], the “cAMP production activity (%)” value worked out at 59%.
As to `Cc1cc(C(=O)N(C)C)ccc1CCS(=O)(=O)N1CCC2(CC1)N=C(NCC1CCCCC1)NC2=O` [Compound 1399, 4-{2-[2-(cyclohexylmethyl-amino)-4-oxo-1,3,8-triaza-spiro[4.5]dec-1-ene-8-sulfonyl]-ethyl}-3,N,N-trimethyl-benzamide], the “cAMP production activity (%)” value stood at 20%.
With `O=C1NC(C2CCCCC2)=NC12CCN(S(=O)(=O)CCc1cccc3c1ccn3CCC(O)CO)CC2` (stereo not drawn) [Compound 748, 2-cyclohexyl-8-{2-[1-(3,4-dihydroxy-butyl)-1H-indol-4-yl]-ethanesulfonyl}-1,3,8-triaza-spiro[4.5]dec-1-en-4-one] the figure was 61%.
For `Cc1cc(N(C)C(N)=O)cc(C)c1CCS(=O)(=O)N1CCC2(CC1)N=C(C1CCC3(CC1)CC3)NC2=O` [Compound 1058, 1-{3,5-dimethyl-4-[2-(4-oxo-2-spiro[2.5]oct-6-yl-1,3,8-triaza-spiro[4.5]dec-1-ene-8-sulfonyl)-ethyl]-phenyl}-1-methyl-urea] the value was 133%; for `Cc1cc(N(C)C(=O)CO)ccc1/C=C/S(=O)(=O)N1CCC2(CC1)N=C(c1cccc(OC(F)(F)F)c1)NC2=O` [Compound 451, 2-Hydroxy-N-methyl-N-(3-methyl-4-{(E)-2-[4-oxo-2-(3-trifluoromethoxy-phenyl)-1,3,8-triaza-spiro[4.5]dec-1-ene-8-sulfonyl]-vinyl}-phenyl)-acetamide], 96%; for `Cc1ccc(C(=O)N(C)CCO)cc1CCS(=O)(=O)N1CCC2(CC1)N=C(c1cccc(OC(F)(F)F)c1)NC2=O` [Compound 413, N-(2-hydroxy-ethyl)-4,N-dimethyl-3-{2-[4-oxo-2-(3-trifluoromethoxy-phenyl)-1,3,8-triaza-spiro[4.5]dec-1-ene-8-sulfonyl]-ethyl}-benzamide], 56%.
With `Cc1cc(C2=NC3(CCN(S(=O)(=O)/C=C/c4c(C)cc(C(=O)N5CCC(O)(CF)CC5)cc4C)CC3)C(=O)N2)ccc1C(F)(F)F` [Compound 1254, 8-{(E)-2-[4-(4-fluoromethyl-4-hydroxy-piperidine-1-carbonyl)-2,6-dimethyl-phenyl]-ethenesulfonyl}-2-(3-methyl-4-trifluoromethyl-phenyl)-1,3,8-triaza-spiro[4.5]dec-1-en-4-one] the figure was 87%; with `Cc1cc(N(C)C(N)=O)cc(C)c1CCS(=O)(=O)N1CCC2(CC1)N=C(CCCCCCCCCO)NC2=O` [Compound 1322, 1-(4-{2-[2-(9-Hydroxy-nonyl)-4-oxo-1,3,8-triaza-spiro[4.5]dec-1-ene-8-sulfonyl]-ethyl}-3,5-dimethyl-phenyl)-1-methyl-urea], 80%.
Take `COc1cccc(C(=O)N2CCCC(C3=NC4(CCN(S(=O)(=O)c5cccc(Cl)c5)CC4)C(=O)N3)C2)c1` (stereo not drawn) [Compound 426, 8-(3-chloro-benzenesulfonyl)-2-[1-(3-methoxy-benzoyl)-piperidin-3-yl]-1,3,8-triaza-spiro[4.5]dec-1-en-4-one]: the “cAMP production activity (%)” value came to 16%.
For `Cc1cc(CN(C)C(N)=O)cc(C)c1CCS(=O)(=O)N1CCC2(CC1)N=C(C1CCC(C)CC1)NC2=O` (stereo not drawn) [Compound 1390, 1-(3,5-dimethyl-4-{2-[2-(4-methyl-cyclohexyl)-4-oxo-1,3,8-triaza-spiro[4.5]dec-1-ene-8-sulfonyl]-ethyl}-benzyl)-1-methyl-urea] the value was 69%; for `Cc1cc(N(C)C(N)=O)cc(C)c1CCS(=O)(=O)N1CCC2(CC1)N=C(c1ccc(OCCCC(F)(F)F)cc1)NC2=O` [Compound 1339, 1-[3,5-dimethyl-4-(2-{4-oxo-2-[4-(4,4,4-trifluoro-butoxy)-phenyl]-1,3,8-triaza-spiro[4.5]dec-1-ene-8-sulfonyl}-ethyl)-phenyl]-1-methyl-urea], 86%; for `CCCCCCCCCC1=NC2(CCN(S(=O)(=O)CCc3ccc(N4C(=O)CNC4=O)cc3C(F)(F)F)CC2)C(=O)N1` [Compound 795, 3-{4-[2-(2-nonyl-4-oxo-1,3,8-triaza-spiro[4.5]dec-1-ene-8-sulfonyl)-ethyl]-3-trifluoromethyl-phenyl}-imidazolidine-2,4-dione], 97%.
For `O=C(Cc1cnc[nH]1)N1CCCC(C2=NC3(CCN(S(=O)(=O)CCc4cccc5ccccc45)CC3)C(=O)N2)C1` (stereo not drawn) [Compound 432, 2-[1-(2-3H-imidazol-4-yl-acetyl)-piperidin-3-yl]-8-(2-naphthalen-1-yl-ethanesulfonyl)-1,3,8-triaza-spiro[4.5]dec-1-en-4-one], the “cAMP production activity (%)” value stood at 5.1%.
Regarding `CC(C)(C)OC(=O)NCc1ccc(CCS(=O)(=O)N2CCC3(CC2)N=C(C2CCCCC2)NC3=O)c(C(F)(F)F)c1` [Compound 272, {4-[2-(2-cyclohexyl-4-oxo-1,3,8-triaza-spiro[4.5]dec-1-ene-8-sulfonyl)-ethyl]-3-trifluoromethyl-benzyl}-carbamic acid tert-butyl ester], the “cAMP production activity (%)” value is 67%.
With `O=C1NC(C2CCCN(S(=O)(=O)Cc3ccccc3)C2)=NC12CCN(S(=O)(=O)CCc1cccc3ccccc13)CC2` (stereo not drawn) [Compound 43, 8-(2-naphthalen-1-yl-ethanesulfonyl)-2-(1-phenylmethanesulfonyl-piperidin-3-yl)-1,3,8-triaza-spiro[4.5]dec-1-en-4-one] the figure was 39%; with `O=C1NC(C2CCCCC2)=NC12CCN(S(=O)(=O)CCc1cccc3c1ccn3CCCCO)CC2` [Compound 651, 2-cyclohexyl-8-{2-[1-(4-hydroxy-butyl)-1H-indol-4-yl]-ethanesulfonyl}-1,3,8-triaza-spiro[4.5]dec-1-en-4-one], 54%; with `Cc1cc(N(C)C(N)=O)cc(C)c1CCS(=O)(=O)N1CCC2(CC1)N=C(C1CCCC(C(F)(F)F)C1)NC2=O` (stereo not drawn) [Compound 1050, 1-(3,5-Dimethyl-4-{2-[4-oxo-2-(3-trifluoromethyl-cyclohexyl)-1,3,8-triaza-spiro[4.5]dec-1-ene-8-sulfonyl]-ethyl}-phenyl)-1-methyl-urea], 92%.
Turning to `Cc1cc(C(=O)N(C)CCN(C)C)cc(C)c1/C=C/S(=O)(=O)N1CCC2(CC1)N=C(c1cccc(C(F)(F)F)c1)NC2=O` [Compound 390, N-(2-dimethylamino-ethyl)-3,5,N-trimethyl-4-{(E)-2-[4-oxo-2-(3-trifluoromethyl-phenyl)-1,3,8-triaza-spiro[4.5]dec-1-ene-8-sulfonyl]-vinyl}-benzamide], the “cAMP production activity (%)” value was 22%.
With `O=C1NC(CCc2ccccc2)=NC12CCN(S(=O)(=O)c1cccc(Cl)c1)CC2` [Compound 29, 8-(3-chloro-benzenesulfonyl)-2-phenethyl-1,3,8-triaza-spiro[4.5]dec-1-en-4-one] the figure was 28%.

The record behind these values is patent publication US9169254B2, “Spiroimidazolone derivative” (Chugai Seiyaku Kabushiki Kaisha, priority 2009, dated 2015).
